Results from patent US9913846B2, “Combination of a PI3 kinase inhibitor with pacitaxel for use in the treatment or prevention of a cancer of the head and neck” (NOVARTIS AG, priority 2013, dated 2018).

Tests used:
UMSCC11A = assay: Cancer cell growth inhibition, cell counting after 5 days; type: cell-based; settings: 120 h
Method: (§1) Data was compared with untreated controls. […] Experiments were carried out in duplicate. The table below details the results.

UMSCC1 = assay: as above; type: cell-based; settings: Homo sapiens, 120 h
Method: as §1

UMSCC5 = assay: as above; type: cell-based; settings: UM-SCC-5, 120 h
Method: as §1

UPCISCC153 = assay: as above; type: cell-based; settings: 120 h
Method: as §1

[1] = tested on: head and neck cancer cell lines; assay: Sensitivity of head and neck cancer cell line panels to Compound A (FIG. 1); type: cell-based; settings: majority of the cell lines of two independently tested panels
Excerpt: (§2) (Red=KRAS mutant=UMSCC-74A. Yellow=PI3KCA mutant=CAL33).

[2] = tested on: pAKT in FaDu xenograft (Hypopharynx squamous cell carcinoma); assay: pAKT in tumor tissue of FaDu xenograft (FIG. 2); type: in vivo; settings: Compound A at 30 mg daily
[3] = Concentration delivered to patients; type: in vivo, human; settings: patients treated at 100 mg daily; expected
Excerpt: as §2

With `CC(=O)O[C@H]1C(=O)[C@@]2(C)[C@H]([C@H](OC(=O)c3ccccc3)[C@]3(O)C[C@H](OC(=O)[C@H](O)[C@@H](NC(=O)c4ccccc4)c4ccccc4)C(C)=C1C3(C)C)[C@]1(OC(C)=O)CO[C@@H]1C[C@@H]2O` [Paclitaxel, 5β,20-Epoxy1,2a,4,7β, 10β, 13a-hexahydroxytax-11-en-9-one 4, 10,-diacetate 2-benzoate 13-ester with (2R, 3S)—N-benzoyl-3-phenylisoserine, reference compound] as the compound, how does the inhibition at 0.001 µg/mL (UMSCC11A; paclitaxel 1 ng/ml) read?
The inhibition at 0.001 µg/mL was 3.13%.

And the inhibition at 0.001 µg/mL (UMSCC1; paclitaxel 1 ng/ml)?
The inhibition at 0.001 µg/mL was 4.6%.

What about the inhibition at 0.001 µg/mL (UMSCC5; paclitaxel 1 ng/ml) of the same compound?
Its inhibition at 0.001 µg/mL is 7.6%.

And the inhibition at 0.001 µg/mL (UPCISCC153; paclitaxel 1 ng/ml)?
The inhibition at 0.001 µg/mL was 0%.

With `Nc1cc(C(F)(F)F)c(-c2cc(N3CCOCC3)nc(N3CCOCC3)n2)cn1` [Compound A, 5-(2,6-di-morpholin-4-yl-pyrimidin-4-yl)-4-trifluoromethyl-pyridin-2-ylamine] as the compound, how does the inhibition at 1 µM (UMSCC11A; Compound A 1 μM) read?
The inhibition at 1 µM was 21.9%.

And the inhibition at 1 µM (UMSCC1; Compound A 1 μM)?
Its inhibition at 1 µM is 21.2%.

What about the inhibition at 1 µM (UMSCC5; Compound A 1 μM) of the same compound?
Its inhibition at 1 µM is 28%.

And the inhibition at 1 µM (UPCISCC153; Compound A 1 μM)?
Its inhibition at 1 µM is 15%.

And the IC50 [1]?
Its IC50 is < 1000 nM.

What about the “pAKT in tumor tissue” value [2] of the same compound?
Its value is “inhibition of pAKT”.

And the “concentration delivered to patients” value [3]?
Its value is “around 1 μM”.
